Source: PMC5840332, “Disease-associated missense mutations in GluN2B subunit alter NMDA receptor ligand binding and ion channel properties” (Nature Communications, 2018)
Several values for one entry are separate records, joined by “and”; a condition that tells them apart may be missing. Identical values can stand only once.

Experiments:
[1] = system: NMDAR-mediated EPSCs, hippocampal neurons; assay: NMDAR-mediated EPSCs in cultured hippocampal neurons, pharmacological characterisation; assay type: cell-based, rat
Protocol: The impact of the GluN2B mutations was assessed on neuronal NMDARs by evoking network-driven NMDAR-mediated EPSCs in hippocampal neurons transfected with either wild-type or mutant GluN2B constructs. Hippocampal cultures were superfused with Krebs containing 10 μM CNQX and 20 μM bicuculline to block non-NMDA receptor and GABAA receptor-mediated currents, respectively. […] To obtain phase-locked EPSCs, a loose cell-attached patch electrode was used to serially stimulate presynaptic neurons yielding evoked EPSCs in postsynaptic neurons.
The relative contributions of GluN2A and GluN2B subunits to NMDAR-mediated currents (at 13–15 DIV) was assessed using the selective antagonists, TCN213 (30 μM, for GluN2A) and ifenprodil (3 μM, for GluN2B).
Dissected hippocampi were dissociated from E18 Sprague Dawley rat embryos using procedures and protocols that have been approved by the UK Home Office. They were dissociated into single cells using 0.1% w/v trypsin and serially triturated with flame-polished Pasteur pipettes. […] Neurons were transfected after 10 days in vitro (DIV) with either cDNAs for the GluN2B WT or mutants together with DsRed using Effectene (Qiagen) and recorded at 13–15 DIV.
(§1) Cells were voltage clamped at −60 mV.
NMDAR-mediated EPSCs were evoked by direct stimulation of single neighbouring neurons using a loose cell-attached patch electrode filled with Krebs and containing a bipolar stimulating electrode. […] For the pharmacological characterisation of NMDAR-mediated EPSCs, the selective antagonists ifenprodil (+)-hemitartrate (Santacruz biotechnology) and TCN213 (Tocris) were used.
EPSCs were analysed offline using WinWCP (Strathclyde Electrophysiology Software, UK). Peak EPSC amplitude, the area of the EPSC (charge transfer) and EPSC decays were measured. The decay time constants (τ) were determined by fitting the EPSC decays with a double exponential function. The weighted time constant (τw) was calculated using the following equation, where A indicates the relative area of each time constant.3 τw=((A1.τ1)+(A2.τ2))∕A1+A2.

GluN1–GluN2B^N615I [2] = target: T1, GluN1–GluN2B^N615I (Homo sapiens, UniProt Q05586+Q13224, N615I); assay: Ion permeability experiments in Mg2+ or Ca2+ solution, HEK293 cells; assay type: cell-based; set-up: expressed in transfected cells; host or cells: HEK293; conditions: −60 mV
Excerpt: (§2) To assess Mg^2+ permeability the external solution was altered such that Mg^2+ was the only current-carrying cation (Mg^2+ solution). […] The same result was apparent for GluN1–GluN2B^N615I (Fig. 4a; Table 1). […] To assess whether the channel mutants affected Ca^2+ permeation, we modified the external solution to make Ca^2+ the only current-carrying cation[24] (Ca^2+ solution). […] This implied a significant reduction in Ca^2+ permeation for GluN2B^N615I.
as §1

GluN1–GluN2B^V618G [3] = target: T2, GluN1–GluN2B^V618G (Homo sapiens, UniProt Q05586+Q13224, V618G); assay: as above; assay type: cell-based; set-up: expressed in transfected cells; host or cells: HEK293; conditions: −60 mV
Excerpt: as §2, §1

GluN1–GluN2B^WT [4] = target: T3, GluN1–GluN2B^WT (Homo sapiens, UniProt Q05586+Q13224); assay: as above; assay type: cell-based; set-up: expressed in transfected cells; host or cells: HEK293; conditions: −60 mV
Excerpt: as §2, §1

GluN1–GluN2B^WT [5] = target: T3, GluN1–GluN2B^WT; assay: Glutamate-activated whole-cell currents in HEK293 cells (concentration–response, current density, desensitisation)
Protocol: (§3) We used the alternatively spliced GluN1–4b isoform for co-expression with GluN2B.
(§4) All human NMDAR GluN1 (isoforms GluN1–4b[66]) and GluN2B constructs were cloned into the pRK5 expression vector (CMV promoter) with optimised Kozak sequences.
(§5) Whole-cell currents (in HEK293 cells) and evoked NMDAR-mediated EPSCs (in cultured neurons) were recorded using an AxoPatch 200B amplifier (Molecular Devices, Sunnyvale, CA, USA). […] The experiments using Ca^2+ as the main external ion were performed using a ‘Ca^2+-solution’ containing (mM): 100 CaCl2, 5 HEPES adjusted to pH 7.4 with Ca(OH)2. […] Cells were voltage clamped at −60 mV.
(§6) The rectification index (Ri) is measured from the current-voltage

GluN1-GluN2BC456Y = assay: Glutamate-activated whole-cell currents in HEK293 cells (mutation screen); conditions: up to 3 mM glutamate
Protocol: as §4, §5, §6

GluN1-GluN2B L825V = GluN1-GluN2B L825V (Homo sapiens, UniProt Q05586+Q13224, L825V); assay: as above; conditions: saturating glutamate, -30 mV
Protocol: as §4, §5, §6

GluN1–GluN2B^N615I [6] = target: T1, GluN1–GluN2B^N615I; assay: Glutamate-activated whole-cell currents in HEK293 cells; conditions: 10 μM glycine
Protocol: as §3, §4, §5, §6

GluN1-GluN2B R682C = GluN1-GluN2B R682C (Homo sapiens, UniProt Q05586+Q13224, R682C); assay: Glutamate-activated whole-cell currents in HEK293 cells (mutation screen); conditions: saturating glutamate, -30 mV
Protocol: as §4, §5, §6

GluN1-GluN2B R540H = GluN1-GluN2B R540H (Homo sapiens, UniProt Q05586+Q13224, R540H); assay: as above; conditions: saturating glutamate, -30 mV
Protocol: as §4, §5, §6

GluN1–GluN2B^P553L = GluN1–GluN2B^P553L (Homo sapiens, UniProt Q05586+Q13224, P553L); assay: Glutamate-activated whole-cell currents in HEK293 cells
Protocol: as §3, §4, §5, §6

GluN1–GluN2B^C461F = GluN1–GluN2B^C461F (Homo sapiens, UniProt Q05586+Q13224, C461F); assay: as above
Protocol: as §3, §4, §5, §6

GluN1-GluN2BA636P = assay: Glutamate-activated whole-cell currents in HEK293 cells (mutation screen); conditions: up to 3 mM glutamate
Protocol: as §4, §5, §6

GluN1–GluN2B^V618G [7] = target: T2, GluN1–GluN2B^V618G; assay: Glutamate-activated whole-cell currents in HEK293 cells
Protocol: as §3, §4, §5, §6

[8] = system: GluN1-GluN2A diheteromers; set-up: method as in PMID 22022974; conditions: cited from earlier work
GluN1–GluN2B^V618G [9] = target: T2, GluN1–GluN2B^V618G; assay: Mg2+ block of glutamate currents in HEK293 cells (concentration–inhibition, I–V, permeation model); assay type: cell-based; set-up: expressed in transfected cells; host or cells: HEK293; conditions: −60 mV; for Effect of external Mg^2+ on glutamate current (Mg2+ block): 1 μM–10 mM Mg^2+
GluN1–GluN2B^WT [10] = target: T3, GluN1–GluN2B^WT; assay: Mg2+ block of glutamate currents in HEK293 cells (concentration–inhibition, I–V, trapping model); assay type: cell-based; set-up: expressed in transfected cells; host or cells: HEK293
GluN1–GluN2B^N615I [11] = target: T1, GluN1–GluN2B^N615I; assay: Mg2+ block of glutamate currents in HEK293 cells (concentration–inhibition, I–V, permeation model); assay type: cell-based; set-up: expressed in transfected cells; host or cells: HEK293; conditions: 1 μM–10 mM Mg^2+, −60 mV
[12] = Ca^2+ solution (100 mM), 10 μM glutamate and 10 μM glycine
[13] = current in Ca^2+ solution as % of current in Krebs
[14] = 3 μM ifenprodil, 13–15 DIV untransfected neurons
[15] = saturating glutamate, 10 μM glycine, −30 mV
[16] = 30 μM TCN213, 13–15 DIV untransfected neurons
[17] = Mg^2+ solution (100 mM), 10 μM glutamate and 10 μM glycine
[18] = current in Mg^2+ solution as % of current in Krebs

T1 sequence (Q13224 27-1484 N615I, other chains not shown): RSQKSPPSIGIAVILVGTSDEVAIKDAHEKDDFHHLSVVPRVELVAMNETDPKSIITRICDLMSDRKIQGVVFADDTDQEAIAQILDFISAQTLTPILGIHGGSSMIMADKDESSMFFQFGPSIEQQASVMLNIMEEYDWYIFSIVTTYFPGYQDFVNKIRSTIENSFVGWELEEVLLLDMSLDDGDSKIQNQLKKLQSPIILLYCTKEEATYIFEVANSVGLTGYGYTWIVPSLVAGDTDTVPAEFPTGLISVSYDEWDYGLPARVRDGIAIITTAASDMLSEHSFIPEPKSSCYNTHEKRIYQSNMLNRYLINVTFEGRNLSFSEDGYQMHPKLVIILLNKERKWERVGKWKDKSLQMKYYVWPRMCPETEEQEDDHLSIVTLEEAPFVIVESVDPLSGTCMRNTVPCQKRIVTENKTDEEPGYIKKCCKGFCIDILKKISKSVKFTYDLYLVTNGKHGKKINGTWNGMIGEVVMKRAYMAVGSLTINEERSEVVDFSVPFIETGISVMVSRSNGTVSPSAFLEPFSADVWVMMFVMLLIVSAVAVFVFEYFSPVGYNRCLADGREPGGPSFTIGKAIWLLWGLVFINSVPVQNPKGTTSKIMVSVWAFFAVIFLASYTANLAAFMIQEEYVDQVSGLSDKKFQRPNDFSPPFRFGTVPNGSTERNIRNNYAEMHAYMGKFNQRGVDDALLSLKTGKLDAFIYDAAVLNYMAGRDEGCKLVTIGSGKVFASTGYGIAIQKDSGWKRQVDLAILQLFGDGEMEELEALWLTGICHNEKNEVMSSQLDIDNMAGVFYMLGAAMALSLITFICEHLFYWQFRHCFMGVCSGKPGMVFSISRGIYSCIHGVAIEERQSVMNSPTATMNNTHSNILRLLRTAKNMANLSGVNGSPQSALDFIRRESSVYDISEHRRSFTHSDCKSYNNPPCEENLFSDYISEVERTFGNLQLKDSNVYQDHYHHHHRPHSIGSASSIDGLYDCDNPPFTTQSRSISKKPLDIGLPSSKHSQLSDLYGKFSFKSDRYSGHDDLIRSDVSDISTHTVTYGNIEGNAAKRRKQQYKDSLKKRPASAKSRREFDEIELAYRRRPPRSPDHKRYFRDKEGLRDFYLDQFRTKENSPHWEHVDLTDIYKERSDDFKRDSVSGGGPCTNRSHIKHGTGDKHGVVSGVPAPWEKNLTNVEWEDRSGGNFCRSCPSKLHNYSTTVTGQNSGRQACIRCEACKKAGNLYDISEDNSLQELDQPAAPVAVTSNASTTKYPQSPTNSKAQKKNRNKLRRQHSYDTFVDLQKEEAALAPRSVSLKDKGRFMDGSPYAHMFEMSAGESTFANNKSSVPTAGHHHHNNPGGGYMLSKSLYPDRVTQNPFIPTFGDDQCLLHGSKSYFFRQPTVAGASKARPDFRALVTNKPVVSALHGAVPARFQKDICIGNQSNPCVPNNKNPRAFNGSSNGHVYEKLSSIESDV
T2 sequence (Q13224 27-1484 V618G, other chains not shown): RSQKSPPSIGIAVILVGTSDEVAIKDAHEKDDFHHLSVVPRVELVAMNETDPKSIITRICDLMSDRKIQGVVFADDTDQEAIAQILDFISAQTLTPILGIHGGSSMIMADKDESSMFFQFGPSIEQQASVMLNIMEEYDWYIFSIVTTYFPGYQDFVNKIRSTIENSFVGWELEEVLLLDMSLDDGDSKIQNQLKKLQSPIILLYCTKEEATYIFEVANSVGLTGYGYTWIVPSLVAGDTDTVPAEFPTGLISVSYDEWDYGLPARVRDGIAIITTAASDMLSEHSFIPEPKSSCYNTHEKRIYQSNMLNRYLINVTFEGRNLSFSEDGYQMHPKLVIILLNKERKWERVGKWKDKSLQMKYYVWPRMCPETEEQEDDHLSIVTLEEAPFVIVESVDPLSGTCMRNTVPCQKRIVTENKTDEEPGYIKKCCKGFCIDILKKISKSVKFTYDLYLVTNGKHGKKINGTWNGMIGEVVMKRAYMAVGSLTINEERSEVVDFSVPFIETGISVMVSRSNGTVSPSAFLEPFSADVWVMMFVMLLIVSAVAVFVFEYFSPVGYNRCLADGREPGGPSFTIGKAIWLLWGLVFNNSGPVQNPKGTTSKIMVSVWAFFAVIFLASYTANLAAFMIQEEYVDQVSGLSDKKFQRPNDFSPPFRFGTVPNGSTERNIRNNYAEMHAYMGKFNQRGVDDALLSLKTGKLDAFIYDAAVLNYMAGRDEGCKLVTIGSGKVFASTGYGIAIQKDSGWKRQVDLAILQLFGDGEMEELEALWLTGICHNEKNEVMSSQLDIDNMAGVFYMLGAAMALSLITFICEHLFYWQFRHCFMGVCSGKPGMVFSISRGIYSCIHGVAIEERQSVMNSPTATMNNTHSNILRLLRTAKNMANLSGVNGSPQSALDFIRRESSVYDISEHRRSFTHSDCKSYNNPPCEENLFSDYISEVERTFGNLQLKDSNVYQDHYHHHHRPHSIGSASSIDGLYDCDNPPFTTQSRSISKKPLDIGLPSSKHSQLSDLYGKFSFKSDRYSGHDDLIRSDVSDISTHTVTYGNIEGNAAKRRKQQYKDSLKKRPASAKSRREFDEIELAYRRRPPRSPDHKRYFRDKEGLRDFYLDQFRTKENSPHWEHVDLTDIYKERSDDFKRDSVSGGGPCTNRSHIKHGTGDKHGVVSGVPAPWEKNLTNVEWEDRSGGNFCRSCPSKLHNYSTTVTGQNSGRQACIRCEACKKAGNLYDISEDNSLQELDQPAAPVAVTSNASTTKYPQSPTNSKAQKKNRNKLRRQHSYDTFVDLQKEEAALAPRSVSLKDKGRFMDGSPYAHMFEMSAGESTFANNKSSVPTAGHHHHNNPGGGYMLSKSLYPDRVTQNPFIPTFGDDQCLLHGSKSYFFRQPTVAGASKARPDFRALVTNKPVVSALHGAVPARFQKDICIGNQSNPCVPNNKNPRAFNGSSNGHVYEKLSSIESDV
Sequence of GluN1–GluN2B^C461F (Q13224 27-1484 C461F, other chains not shown): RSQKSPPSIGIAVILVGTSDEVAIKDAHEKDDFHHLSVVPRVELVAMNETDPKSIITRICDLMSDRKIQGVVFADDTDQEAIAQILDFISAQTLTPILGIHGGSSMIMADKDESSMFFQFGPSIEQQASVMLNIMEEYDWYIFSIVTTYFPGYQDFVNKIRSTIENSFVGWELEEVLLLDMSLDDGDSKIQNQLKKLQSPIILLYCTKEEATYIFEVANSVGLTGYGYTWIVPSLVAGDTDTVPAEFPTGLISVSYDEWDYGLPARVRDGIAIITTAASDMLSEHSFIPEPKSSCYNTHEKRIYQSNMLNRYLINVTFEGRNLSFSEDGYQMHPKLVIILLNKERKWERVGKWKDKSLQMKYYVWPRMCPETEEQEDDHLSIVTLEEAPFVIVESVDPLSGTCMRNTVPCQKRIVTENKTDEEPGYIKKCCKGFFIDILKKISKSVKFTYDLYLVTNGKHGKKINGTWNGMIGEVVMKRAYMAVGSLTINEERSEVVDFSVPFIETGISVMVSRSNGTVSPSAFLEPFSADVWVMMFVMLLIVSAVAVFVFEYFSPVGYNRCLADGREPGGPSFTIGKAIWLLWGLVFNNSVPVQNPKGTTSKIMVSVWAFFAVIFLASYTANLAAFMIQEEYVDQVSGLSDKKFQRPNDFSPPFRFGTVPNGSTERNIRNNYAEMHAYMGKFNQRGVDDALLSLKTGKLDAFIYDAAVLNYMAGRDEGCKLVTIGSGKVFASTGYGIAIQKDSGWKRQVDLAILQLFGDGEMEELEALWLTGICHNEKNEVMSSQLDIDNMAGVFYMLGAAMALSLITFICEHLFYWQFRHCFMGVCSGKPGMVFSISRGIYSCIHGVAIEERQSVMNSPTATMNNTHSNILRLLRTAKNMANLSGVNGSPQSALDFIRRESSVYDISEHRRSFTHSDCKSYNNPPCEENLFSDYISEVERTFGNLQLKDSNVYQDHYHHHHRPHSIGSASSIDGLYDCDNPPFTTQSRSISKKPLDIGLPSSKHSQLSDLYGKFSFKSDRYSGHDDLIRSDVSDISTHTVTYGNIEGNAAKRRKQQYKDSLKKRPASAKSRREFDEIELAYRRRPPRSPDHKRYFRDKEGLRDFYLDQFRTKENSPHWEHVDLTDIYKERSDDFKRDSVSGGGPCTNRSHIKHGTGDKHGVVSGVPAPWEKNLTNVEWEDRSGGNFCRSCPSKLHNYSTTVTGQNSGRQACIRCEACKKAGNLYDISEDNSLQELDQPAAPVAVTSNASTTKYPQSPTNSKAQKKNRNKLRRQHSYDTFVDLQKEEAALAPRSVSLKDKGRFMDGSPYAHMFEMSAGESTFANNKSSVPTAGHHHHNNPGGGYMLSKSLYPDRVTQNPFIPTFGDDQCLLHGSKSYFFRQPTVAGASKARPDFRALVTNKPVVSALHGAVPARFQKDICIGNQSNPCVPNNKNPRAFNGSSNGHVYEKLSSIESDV

## N[C@@H](CCCP(=O)(O)O)C(=O)O [APV]
[1]; 20 μM APV, 0 Mg^2+, 10 μM CNQX, 20 μM bicuculline
  Effect on spontaneous/evoked EPSCs: blocked

## [Ca+2] [Ca^2+]
GluN1–GluN2B^N615I [2]; [12]
  ICa current density: −0.47 ± 0.10 pA/pF
GluN1–GluN2B^N615I [2]; [13]
  ICa/IKrebs: 11.07 ± 1.04%
GluN1–GluN2B^V618G [3]; [12]
  ICa current density: −5.00 ± 0.64 pA/pF
GluN1–GluN2B^V618G [3]; [13]
  ICa/IKrebs: 46.28 ± 3.18%
GluN1–GluN2B^WT [4]; [12]
  ICa current density: −7.08 ± 2.12 pA/pF
GluN1–GluN2B^WT [4]; [13]
  ICa/IKrebs: 52.83 ± 1.07%

## CC(C(O)c1ccc(O)cc1)N1CCC(Cc2ccccc2)CC1 (stereo not drawn) [Ifenprodil, ifenprodil (+)-hemitartrate]
[1]; [14]
  Decrease of EPSC decay time: 30%
  Effect on peak EPSC amplitude: reduced the peak EPSC amplitude

## N[C@@H](CCC(=O)O)C(=O)O [glutamate]
GluN1–GluN2B^WT [5]; 10 μM glycine
  Hill slope (n) of glutamate concentration–response curve: 1.45 ± 0.12
GluN1–GluN2B^WT [5]; [15]
  Glutamate current desensitisation decay τ: 21.17 ± 0.31 s
GluN1–GluN2B^WT [5]; saturating glutamate, -30 mV
  Glutamate current density (maximal current/cell capacitance): -20.36 ± 4.54 pA/pF
GluN1-GluN2BC456Y
  Glutamate current: No glutamate current was detected
GluN1-GluN2B L825V
  Glutamate current density (maximal current/cell capacitance): -19.06 ± 3.65 pA/pF
GluN1–GluN2B^N615I [6]
  Hill slope (n) of glutamate concentration–response curve: 1.27 ± 0.13
GluN1-GluN2B R682C
  Glutamate current density (maximal current/cell capacitance): -15.34 ± 2.56 pA/pF
GluN1-GluN2B R540H
  Glutamate current density (maximal current/cell capacitance): -30.31 ± 7.71 pA/pF
GluN1–GluN2B^P553L; 10 μM glycine
  Hill slope (n) of glutamate concentration–response curve: 0.89 ± 0.05
GluN1–GluN2B^P553L; [15]
  Glutamate current desensitisation decay τ: 420.3 ± 30.1 ms
GluN1–GluN2B^P553L; saturating glutamate, -30 mV
  Glutamate current density (maximal current/cell capacitance): -15.31 ± 3.70 pA/pF
GluN1–GluN2B^P553L; vs GluN1–GluN2B WT
  Reduction of glutamate potency compared to wild-type: 1.7 fold
GluN1–GluN2B^C461F; 10 μM glycine
  Hill slope (n) of glutamate concentration–response curve: 1.44 ± 0.03
GluN1–GluN2B^C461F; saturating glutamate, -30 mV
  Glutamate current density (maximal current/cell capacitance): -6.49 ± 3.94 pA/pF
GluN1–GluN2B^C461F; vs GluN1–GluN2B WT
  Reduction of glutamate potency compared to wild-type: 71 fold
GluN1-GluN2BA636P
  Glutamate current: No glutamate current was detected
GluN1–GluN2B^V618G [7]; 10 μM glycine
  Hill slope (n) of glutamate concentration–response curve: 1.23 ± 0.12
GluN1–GluN2B^V618G [7]; saturating glutamate, -30 mV
  Glutamate current density (maximal current/cell capacitance): -17.55 ± 3.35 pA/pF

## O=C(CSc1nnc(NCc2ccccc2)s1)NCC1CCCCC1 [TCN213]
[8]
  IC50: ~30 µM
[1]; [16]
  Prolongation of EPSC decay: 40%
  Reduction of peak EPSC amplitude: 10%

## [Mg+2] [Mg^2+]
GluN1–GluN2B^V618G [9]
  Effect of external Mg^2+ on glutamate current (Mg2+ block): unaffected by external Mg^2+
GluN1–GluN2B^V618G [9]; listed as Mg2+
  Effect of external Mg^2+ on glutamate current (Mg2+ block): insensitive to Mg2+
GluN1–GluN2B^V618G [9]; 3–10 mM Mg^2+
  Change in current at high Mg^2+ concentrations: small increase in current
GluN1–GluN2B^WT [10]; predicted rate constant, 0 mV
  k-bi (0mV), Mg2+ unbinding rate constant to inside: 25124 s⁻¹
  k-bo (0mV), Mg2+ unbinding rate constant to outside: 24686 s⁻¹
GluN1–GluN2B^WT [10]; read-out: Dissociation constant for Mg^2+ binding at −60 mV, trapping block model, −60 mV
  Kd: 123 µM
GluN1–GluN2B^WT [10]; read-out: Mg^2+ IC50 (−60 mV), 10 μM glutamate and 10 μM glycine, −60 mV
  IC50: 142 µM
GluN1–GluN2B^WT [10]; trapping block model fit
  δMg, fraction of membrane potential sensed by Mg^2+: 0.88 ± 0.04
GluN1–GluN2B^N615I [2]; [17]
  IMg current density: −0.09 ± 0.03 pA/pF
GluN1–GluN2B^N615I [2]; [18]
  IMg/IKrebs: 1.63 ± 0.64%
GluN1–GluN2B^V618G [3]; [17]
  IMg current density: −10.28 ± 2.53 pA/pF
GluN1–GluN2B^V618G [3]; [18]
  IMg/IKrebs: 58.4 ± 9.8% and 58.46 ± 9.8 %
GluN1–GluN2B^WT [4]; [17]
  IMg current density: −0.07 ± 0.03 pA/pF
GluN1–GluN2B^WT [4]; [18]
  IMg/IKrebs: 0.91 ± 0.37%
GluN1–GluN2B^N615I [11]
  Effect of external Mg^2+ on glutamate current (Mg2+ block): unaffected by external Mg^2+
GluN1–GluN2B^N615I [11]; listed as Mg2+
  Effect of external Mg^2+ on glutamate current (Mg2+ block): insensitive to Mg2+
